Assay results published in patent publication US11420958B2, “Aryl and heteroaryl substituted indole compounds” (BRISTOL-MYERS SQUIBB COMPANY, priority 2017, dated 2022).

Tests used:
Assay type in all cases: cell-based
human TLR8 = human TLR8 (Homo sapiens (Human), UniProt Q9NR97); experiment: TLR8 inhibition reporter assay (HEK-Blue, SEAP); details: HEK-Blue cells overexpressing human TLR8, R848 15.9 μM stimulation
In short: (§1)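 Reporter cells, NF-κB/AP-1-driven SEAP; cmpd 0.05 nM–50 μM final, 30 min RT pre-treat; stim gardiquimod 7.5 μM (TLR7), R848 15.9 μM (TLR8), ODN2006 5 nM (TLR9); 22 h 37 °C; % inhibition of SEAP signal.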

human TLR9 = human TLR9 (Homo sapiens (Human), UniProt Q9NR96); experiment: TLR9 inhibition reporter assay (HEK-Blue, SEAP); details: HEK-Blue cells overexpressing human TLR9, ODN2006 5 nM stimulation
In short: as §1

human TLR7 = human TLR7 (Homo sapiens (Human), UniProt Q9NYK1); experiment: TLR7 inhibition reporter assay (HEK-Blue, SEAP); details: HEK-Blue cells overexpressing human TLR7, gardiquimod 7.5 μM stimulation
In short: as §1

human TLR8, sequence (Q9NR97 27-1041): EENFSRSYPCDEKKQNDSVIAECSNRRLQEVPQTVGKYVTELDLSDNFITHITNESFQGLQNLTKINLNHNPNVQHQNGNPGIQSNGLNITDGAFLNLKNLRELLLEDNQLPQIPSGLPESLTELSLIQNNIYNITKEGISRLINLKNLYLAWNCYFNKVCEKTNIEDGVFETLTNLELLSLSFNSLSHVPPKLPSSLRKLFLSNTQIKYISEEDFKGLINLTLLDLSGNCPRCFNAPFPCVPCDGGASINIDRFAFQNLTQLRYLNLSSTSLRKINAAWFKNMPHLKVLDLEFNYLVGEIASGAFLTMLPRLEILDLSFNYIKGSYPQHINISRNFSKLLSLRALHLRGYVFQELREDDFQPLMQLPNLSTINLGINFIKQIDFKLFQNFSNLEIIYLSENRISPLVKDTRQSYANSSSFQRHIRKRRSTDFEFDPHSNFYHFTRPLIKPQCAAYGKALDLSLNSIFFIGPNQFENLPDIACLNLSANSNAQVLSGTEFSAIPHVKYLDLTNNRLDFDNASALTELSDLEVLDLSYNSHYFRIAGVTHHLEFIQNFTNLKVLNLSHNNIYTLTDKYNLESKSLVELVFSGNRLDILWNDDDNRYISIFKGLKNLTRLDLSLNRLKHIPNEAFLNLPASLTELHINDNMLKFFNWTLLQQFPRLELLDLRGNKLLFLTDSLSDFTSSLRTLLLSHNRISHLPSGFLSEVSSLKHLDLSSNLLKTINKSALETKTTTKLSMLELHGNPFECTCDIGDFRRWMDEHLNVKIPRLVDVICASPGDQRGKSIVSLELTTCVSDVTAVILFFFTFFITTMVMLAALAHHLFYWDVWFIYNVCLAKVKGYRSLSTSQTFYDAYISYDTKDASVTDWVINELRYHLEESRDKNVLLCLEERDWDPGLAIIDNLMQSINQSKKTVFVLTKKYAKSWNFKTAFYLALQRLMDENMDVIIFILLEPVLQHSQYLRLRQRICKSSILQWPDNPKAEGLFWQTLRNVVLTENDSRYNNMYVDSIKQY
human TLR7, sequence (Q9NYK1 27-1049): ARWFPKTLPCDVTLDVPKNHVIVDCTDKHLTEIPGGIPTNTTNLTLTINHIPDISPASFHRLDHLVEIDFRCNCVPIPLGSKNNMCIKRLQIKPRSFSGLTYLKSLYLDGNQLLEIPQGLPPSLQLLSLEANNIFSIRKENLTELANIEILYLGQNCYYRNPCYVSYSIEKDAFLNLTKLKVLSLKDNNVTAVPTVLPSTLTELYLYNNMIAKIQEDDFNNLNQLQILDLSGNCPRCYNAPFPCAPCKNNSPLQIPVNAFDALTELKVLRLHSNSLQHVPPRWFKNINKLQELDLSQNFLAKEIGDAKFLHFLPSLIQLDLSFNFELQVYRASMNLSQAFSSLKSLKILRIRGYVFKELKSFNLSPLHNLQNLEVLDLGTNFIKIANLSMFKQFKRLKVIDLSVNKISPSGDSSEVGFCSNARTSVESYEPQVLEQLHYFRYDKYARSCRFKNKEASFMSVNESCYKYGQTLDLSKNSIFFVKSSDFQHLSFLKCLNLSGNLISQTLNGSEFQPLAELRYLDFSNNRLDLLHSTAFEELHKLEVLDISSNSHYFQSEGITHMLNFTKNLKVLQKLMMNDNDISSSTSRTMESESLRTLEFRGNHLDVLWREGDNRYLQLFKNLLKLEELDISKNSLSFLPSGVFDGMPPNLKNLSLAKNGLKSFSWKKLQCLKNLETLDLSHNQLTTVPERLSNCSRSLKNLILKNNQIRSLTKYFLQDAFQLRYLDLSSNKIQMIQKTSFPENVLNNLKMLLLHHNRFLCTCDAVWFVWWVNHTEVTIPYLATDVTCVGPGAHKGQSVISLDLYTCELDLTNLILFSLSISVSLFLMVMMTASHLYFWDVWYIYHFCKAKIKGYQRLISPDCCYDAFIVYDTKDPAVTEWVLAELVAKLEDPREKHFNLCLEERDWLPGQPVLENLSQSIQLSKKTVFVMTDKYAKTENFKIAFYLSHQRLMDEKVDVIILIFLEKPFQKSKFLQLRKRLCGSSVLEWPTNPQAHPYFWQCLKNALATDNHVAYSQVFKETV
human TLR9, sequence (Q9NR96 26-1032): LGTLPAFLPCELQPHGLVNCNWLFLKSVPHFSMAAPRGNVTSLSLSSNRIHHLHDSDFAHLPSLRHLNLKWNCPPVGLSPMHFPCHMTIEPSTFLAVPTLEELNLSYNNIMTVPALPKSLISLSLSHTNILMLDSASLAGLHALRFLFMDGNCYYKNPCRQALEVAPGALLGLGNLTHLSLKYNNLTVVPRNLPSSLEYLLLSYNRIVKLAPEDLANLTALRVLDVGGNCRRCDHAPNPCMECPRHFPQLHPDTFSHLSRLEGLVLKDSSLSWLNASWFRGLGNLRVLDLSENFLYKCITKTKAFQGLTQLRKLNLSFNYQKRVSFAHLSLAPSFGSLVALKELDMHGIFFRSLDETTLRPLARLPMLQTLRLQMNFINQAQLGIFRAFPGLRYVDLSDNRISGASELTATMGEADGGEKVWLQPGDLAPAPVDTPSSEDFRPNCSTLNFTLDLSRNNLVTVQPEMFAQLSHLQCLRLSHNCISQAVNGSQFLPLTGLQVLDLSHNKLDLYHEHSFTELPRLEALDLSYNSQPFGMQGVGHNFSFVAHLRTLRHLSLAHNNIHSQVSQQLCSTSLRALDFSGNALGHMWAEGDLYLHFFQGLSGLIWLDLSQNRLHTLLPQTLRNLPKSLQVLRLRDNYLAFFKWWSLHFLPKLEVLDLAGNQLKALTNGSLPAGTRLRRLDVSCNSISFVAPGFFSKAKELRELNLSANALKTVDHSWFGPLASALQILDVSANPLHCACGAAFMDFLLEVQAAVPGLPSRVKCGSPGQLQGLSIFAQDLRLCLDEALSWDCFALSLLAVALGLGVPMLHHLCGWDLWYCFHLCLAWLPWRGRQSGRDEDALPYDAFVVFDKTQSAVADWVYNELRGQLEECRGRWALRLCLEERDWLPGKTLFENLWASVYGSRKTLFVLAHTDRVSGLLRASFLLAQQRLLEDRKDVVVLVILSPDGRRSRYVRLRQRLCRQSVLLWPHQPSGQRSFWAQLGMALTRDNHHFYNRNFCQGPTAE

| IC50 (human TLR8) [nM] | IC50 (human TLR9) [nM] | IC50 (human TLR7) [nM] | SMILES |
| --- | --- | --- | --- |
| 5.9 | 1080 | 44 | COc1ccc(-c2[nH]c3ccc(-c4nnc(C[C@@H]5CCCCN5)o4)cc3c2C(C)C)cc1OC [Example 50, (S)-2-(2-(3,4-dimethoxyphenyl)-3-isopropyl-1H-indol-5-yl)-5-(piperidin-2-ylmethyl)-1,3,4-oxadiazole] |
| 312 | > 50000 | 570 | COc1ccc(-c2[nH]c3ccc(-c4ccc(N5CCN(C6CCCC6)CC5)cc4)cc3c2C(C)C)cc1OC [Example 403, 5-(4-(4-cyclopentylpiperazin-1-yl)phenyl)-2-(3,4-dimethoxyphenyl)-3-isopropyl-1H-indole] |
| 32 | > 50000 | 158 | CNc1nnc(-c2ccc3[nH]c(-c4ccnc(C)c4)c(C(C)C)c3c2)o1 [Example 346, 5-(3-isopropyl-2-(2-methylpyridin-4-yl)-1H-indol-5-yl)-N-methyl-1,3,4-oxadiazol-2-amine] |
| 740 | 10300 | 3280 | CCc1c(-c2ccc(OC)c(OC)c2)[nH]c2ccc(-c3noc(C4CCN(Cc5ccccc5)C4)n3)cc12 (stereo not drawn) [Example 443, 5-(1-benzylpyrrolidin-3-yl)-3-(2-(3,4-dimethoxyphenyl)-3-ethyl-1H-indol-5-yl)-1,2,4-oxadiazole] |
| 71 | > 50000 | 974 | COc1ccc(-c2[nH]c3ccc(-c4cccc(C(=O)N(C)CCc5ccccn5)c4)cc3c2CC(F)(F)F)cc1OC [Example 35, 3-(2-(3,4-dimethoxyphenyl)-3-(2,2,2-trifluoroethyl)-1H-indol-5-yl)-N-methyl-N-(2-(pyridin-2-yl)ethyl)benzamide] |
| 166 | > 50000 | 108 | COCCN(C)Cc1nnc(-c2ccc3[nH]c(-c4ccc(OC)c(OC)c4)c(C(C)C)c3c2)o1 [Example 121, N-((5-(2-(3,4-dimethoxyphenyl)-3-isopropyl-1H-indol-5-yl)-1,3,4-oxadiazol-2-yl)methyl)-2-methoxy-N-methylethan-1-amine] |
| 31 | > 50000 | 844 | COc1ccc(-c2[nH]c3ccc(-c4nnc(C(=O)NCCNC(C)=O)o4)cc3c2C(C)C)cc1OC [Example 100, N-(2-acetamidoethyl)-5-(2-(3,4-dimethoxyphenyl)-3-isopropyl-1H-indol-5-yl)-1,3,4-oxadiazole-2-carboxamide] |
| 0.6 | 660 | 11 | Cc1cc(-c2[nH]c3ccc(-c4nnc(C5CCCN(C)C5)o4)cc3c2C(C)C)ccn1 (stereo not drawn) [Example 170, 2-(3-isopropyl-2-(2-methylpyridin-4-yl)-1H-indol-5-yl)-5-(1-methylpiperidin-3-yl)-1,3,4-oxadiazole] |
| 0.6 | 673 | 0.37 | Cc1cc(-c2[nH]c3ccc(-c4nnc(C5CCN(C)CC5)o4)cc3c2C(C)C)cn2ncnc12 [Example 367, 2-(3-isopropyl-2-(8-methyl-[1,2,4]triazolo[1,5-a]pyridin-6-yl)-1H-indol-5-yl)-5-(1-methylpiperidin-4-yl)-1,3,4-oxadiazole] |
| 86 | 11700 | 112 | Cc1cc(-c2[nH]c3ccc(-c4nc(C(=O)NCC5CCNC5)c(C)o4)cc3c2C(C)C)ccn1 (stereo not drawn) [Example 194, 2-(3-isopropyl-2-(2-methylpyridin-4-yl)-1H-indol-5-yl)-5-methyl-N-(pyrrolidin-3-ylmethyl)oxazole-4-carboxamide] |
| 3.3 | 561 | 21 | Cc1cc(-c2[nH]c3ccc(-c4nnc(CC(C)(C)N)o4)cc3c2C(C)C)ccn1 [Example 265, 1-(5-(3-isopropyl-2-(2-methylpyridin-4-yl)-1H-indol-5-yl)-1,3,4-oxadiazol-2-yl)-2-methylpropan-2-amine] |
| 82 | 41100 | 744 | COc1ccc(-c2[nH]c3ccc(-c4cccc(C(=O)NCC#N)c4)cc3c2CC(F)(F)F)cc1OC [Example 27, N-(cyanomethyl)-3-(2-(3,4-dimethoxyphenyl)-3-(2,2,2-trifluoroethyl)-1H-indol-5-yl)benzamide] |
| 21 | 1400 | 99 | COc1ccc(-c2[nH]c3ccc(-c4nnc(C(=O)N5CCC(N6CCCC6)CC5)o4)cc3c2C(C)C)cc1OC [Example 95, (5-(2-(3,4-dimethoxyphenyl)-3-isopropyl-1H-indol-5-yl)-1,3,4-oxadiazol-2-yl)(4-(pyrrolidin-1-yl)piperidin-1-yl)methanone] |
| 71 | > 50000 | 2290 | COc1ccc(-c2[nH]c3ccc(-c4ccc(N5CCOCC5)nc4)cc3c2C(C)C)cc1OC [Example 416, 4-(5-(2-(3,4-dimethoxyphenyl)-3-isopropyl-1H-indol-5-yl)pyridin-2-yl)morpholine] |
| 3 | 328 | 28 | Cc1cc(-c2[nH]c3ccc(-c4nnc(C5CCCN(C(C)C)C5)[nH]4)cc3c2C(C)C)ccn1 (stereo not drawn) [Example 188, 3-isopropyl-5-(5-(1-isopropylpiperidin-3-yl)-4H-1,2,4-triazol-3-yl)-2-(2-methylpyridin-4-yl)-1H-indole] |
| 111 | 44000 | 486 | CC(C)c1c(-c2ccnc3[nH]ncc23)[nH]c2ccc(-c3ccc4c(cnn4C)c3)cc12 [Example 395, 4-(3-isopropyl-5-(1-methyl-1H-indazol-5-yl)-1H-indol-2-yl)-1H-pyrazolo[3,4-b]pyridine] |
| 12 | 3990 | 220 | Cc1cc(-c2[nH]c3ccc(-c4nnc(C5CCCNC5)[nH]4)cc3c2C(C)C)ccn1 (stereo not drawn) [Example 178, 3-isopropyl-2-(2-methylpyridin-4-yl)-5-(5-(piperidin-3-yl)-4H-1,2,4-triazol-3-yl)-1H-indole] |
| 3.5 | 5620 | 24 | Cc1cc(-c2[nH]c3ccc(-c4nc5c(s4)CN(CC(=O)N(C)C)CC5)cc3c2C(C)C)cc(C)n1 [Example 309, 2-(2-(2-(2,6-dimethylpyridin-4-yl)-3-isopropyl-1H-indol-5-yl)-6,7-dihydrothiazolo[5,4-c]pyridin-5(4H)-yl)-N,N-dimethylacetamide] |
| 2.5 | 229 | 11 | Cc1cc(-c2[nH]c3ccc(-c4nnc(C(=O)NCCCN(C)C)o4)cc3c2C(C)C)cc(C)n1 [Example 224, N-(3-(dimethylamino)propyl)-5-(2-(2,6-dimethylpyridin-4-yl)-3-isopropyl-1H-indol-5-yl)-1,3,4-oxadiazole-2-carboxamide] |
| 1 | 623 | 16 | Cc1cc(-c2[nH]c3ccc(-c4cc5c(s4)CNCC5)cc3c2C(C)C)ccn1 [Example 225, 2-(3-isopropyl-2-(2-methylpyridin-4-yl)-1H-indol-5-yl)-4,5,6,7-tetrahydrothieno[2,3-c]pyridine] |
| 14 | 3290 | 55 | COc1ccc(-c2[nH]c3ccc(-c4nnc(C(=O)NCCCn5ccnc5)o4)cc3c2C(C)C)cc1OC [Example 101, N-(3-(1H-imidazol-1-yl)propyl)-5-(2-(3,4-dimethoxyphenyl)-3-isopropyl-1H-indol-5-yl)-1,3,4-oxadiazole-2-carboxamide] |
| 101 | 4120 | 3300 | COc1ccc(-c2[nH]c3ccc(-c4cccc(-c5cccc(CN(C)C)c5)c4)cc3c2C(C)C)cc1OC [Example 397, 1-(3′-(2-(3,4-dimethoxyphenyl)-3-isopropyl-1H-indol-5-yl)-[1,1′-biphenyl]-3-yl)-N,N-dimethylmethanamine] |
| 13 | 1080 | 21 | Cc1cc(-c2[nH]c3ccc(-c4nc(C(=O)NCC(C)CN)co4)cc3c2C(C)C)cc(C)n1 (stereo not drawn) [Example 277, N-(3-amino-2-methylpropyl)-2-(2-(2,6-dimethylpyridin-4-yl)-3-isopropyl-1H-indol-5-yl)oxazole-4-carboxamide] |
| 2.6 | 4070 | 20 | Cc1cc(-c2[nH]c3ccc(-c4ccc(NC(C)C)nc4)cc3c2C(C)C)cc(C)n1 [Example 248, 5-(2-(2,6-dimethylpyridin-4-yl)-3-isopropyl-1H-indol-5-yl)-N-isopropylpyridin-2-amine] |
| 23 | 2210 | 228 | COc1ccc(-c2[nH]c3ccc(-c4nnc(CN5CC6CNCC6C5)o4)cc3c2C(C)C)cc1OC (stereo not drawn) [Example 107, 2-(2-(3,4-dimethoxyphenyl)-3-isopropyl-1H-indol-5-yl)-5-((hexahydropyrrolo[3,4-c]pyrrol-2(1H)-yl)methyl)-1,3,4-oxadiazole] |
| 238 | 42300 | 2180 | CCc1c(-c2ccc(OC)c(OC)c2)[nH]c2ccc(-c3ccncc3)cc12 [Example 471, 2-(3,4-dimethoxyphenyl)-3-ethyl-5-(pyridin-4-yl)-1H-indole] |

| SMILES | IC50 (human TLR8) [nM] | IC50 (human TLR9) [nM] | IC50 (human TLR7) [nM] |
| --- | --- | --- | --- |
| CC(C)c1c(-c2ccnc3[nH]ncc23)[nH]c2ccc(-c3nnc(C4CN5CCC4CC5)o3)cc12 (stereo not drawn) [Example 220, 2-(3-isopropyl-2-(1H-pyrazolo[3,4-b]pyridin-4-yl)-1H-indol-5-yl)-5-(quinuclidin-3-yl)-1,3,4-oxadiazole] | 12 | 238 | 76 |
| Cc1cc(-c2[nH]c3ccc(-c4nnc(C5CN6CCC5CC6)o4)cc3c2C(C)C)cc(C)n1 (stereo not drawn) [Example 297, 2-(2-(2,6-dimethylpyridin-4-yl)-3-isopropyl-1H-indol-5-yl)-5-(quinuclidin-3-yl)-1,3,4-oxadiazole] | 3.1 | 111 | 6.2 |
